Test results published in ChEMBL document CHEMBL3817817, “The design strategy of selective PTP1B inhibitors over TCPTP” (Bioorg Med Chem, 2016).
Blank lines part the entries; values can stand above or below the molecule they belong to.

Key:
[1] = target: T1, Tyrosine-protein phosphatase non-receptor type 1 (Homo sapiens, UniProt P18031); test: Inhibition of human recombinant PTP1B catalytic domain using p-nitrophenyl phosphate as substrate by micro plate reader method
T1 sequence (P18031 whole entry): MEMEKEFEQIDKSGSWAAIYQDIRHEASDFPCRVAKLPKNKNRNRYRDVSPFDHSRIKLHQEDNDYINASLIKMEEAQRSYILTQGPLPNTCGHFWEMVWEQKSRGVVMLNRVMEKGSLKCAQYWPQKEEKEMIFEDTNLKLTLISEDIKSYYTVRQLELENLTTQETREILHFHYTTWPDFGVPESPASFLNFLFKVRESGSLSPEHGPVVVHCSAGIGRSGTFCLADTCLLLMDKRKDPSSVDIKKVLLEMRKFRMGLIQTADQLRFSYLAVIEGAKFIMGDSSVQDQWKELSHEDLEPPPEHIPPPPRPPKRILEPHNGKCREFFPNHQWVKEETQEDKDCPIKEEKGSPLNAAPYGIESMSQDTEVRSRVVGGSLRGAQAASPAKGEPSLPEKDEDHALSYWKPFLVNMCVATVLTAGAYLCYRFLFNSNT

[2] = organism: Homo sapiens; test: Selectivity ratio of IC50 for human TCPTP to IC50 for human recombinant PTP1B
[3] = target: T2, Tyrosine-protein phosphatase non-receptor type 2 (Homo sapiens, UniProt P17706); test: Inhibition of human TCPTP using p-nitrophenyl phosphate as substrate by micro plate reader method
T2 sequence (P17706 whole entry): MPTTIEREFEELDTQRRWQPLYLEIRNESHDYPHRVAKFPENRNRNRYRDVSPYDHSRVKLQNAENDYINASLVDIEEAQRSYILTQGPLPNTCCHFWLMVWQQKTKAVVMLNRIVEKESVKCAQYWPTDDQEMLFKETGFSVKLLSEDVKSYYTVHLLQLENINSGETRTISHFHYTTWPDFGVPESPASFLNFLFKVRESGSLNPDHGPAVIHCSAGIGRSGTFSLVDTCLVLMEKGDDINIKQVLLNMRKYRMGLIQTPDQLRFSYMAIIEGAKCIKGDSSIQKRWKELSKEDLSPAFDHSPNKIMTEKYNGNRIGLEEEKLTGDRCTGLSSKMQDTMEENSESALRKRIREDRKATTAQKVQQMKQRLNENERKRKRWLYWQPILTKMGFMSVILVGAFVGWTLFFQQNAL

[4] = target: T2, Tyrosine-protein phosphatase non-receptor type 2; test: Inhibition of TCPTP (unknown origin) using p-nitrophenyl phosphate as substrate by colorimetric method
[5] = target: T1, Tyrosine-protein phosphatase non-receptor type 1; test: Inhibition of human PTP1B (1 to 288 residues) expressed in Escherichia coli BL21 (DE3) cells using p-nitrophenyl phosphate as substrate by colorimetric method
[6] = organism: Homo sapiens; test: Selectivity ratio of Ki for TCPTP (unknown origin) to Ki for human PTP1B (1 to 288 residues)
[7] = target: T1, Tyrosine-protein phosphatase non-receptor type 1; test: Inhibition of human PTP1B (1 to 288 residues) expressed in Escherichia coli BL21 (DE3) cells using p-nitrophenyl phosphate as substrate monitered every 30 secs for 15 mins by micro plate reader method
[8] = target: T2, Tyrosine-protein phosphatase non-receptor type 2; test: Inhibition of TCPTP (unknown origin)
[9] = organism: Homo sapiens; test: Selectivity ratio of IC50 for TCPTP (unknown origin) to IC50 for human PTP1B (1 to 288 residues)
[10] = organism: Homo sapiens; test: Selectivity ratio of IC50 for human GST-tagged TCPTP to IC50 for human recombinant PTP1B catalytic domain
[11] = target: T1, Tyrosine-protein phosphatase non-receptor type 1; test: Inhibition of human recombinant PTP1B catalytic domain expressed in Escherichia coli BL21 (DE3) cells using p-Nitrophenyl phosphate as substrate by microplate reader method
[12] = target: T2, Tyrosine-protein phosphatase non-receptor type 2; test: Inhibition of human GST-tagged TCPTP expressed in Escherichia coli BL21 (DE3) cells using p-Nitrophenyl phosphate as substrate by microplate reader method
[13] = target: T2, Tyrosine-protein phosphatase non-receptor type 2; test: Inhibition of human TCPTP (1 to 296 residues) catalytic domain expressed in Escherichia coli BL21 cells using fluorescein diphosphate as substrate by microplate reader method
[14] = target: T1, Tyrosine-protein phosphatase non-receptor type 1; test: Inhibition of PTP1B (unknown origin)
[15] = organism: Homo sapiens; test: Selectivity ratio of IC50 for human recombinant TCPTP (1 to 341 residues) to IC50 for human recombinant PTP1B
[16] = target: T2, Tyrosine-protein phosphatase non-receptor type 2; test: Inhibition of human recombinant TCPTP (1 to 341 residues) expressed in Escherichia coli using p-nitrophenyl phosphate as substrate by UV spectroscopy
[17] = target: T1, Tyrosine-protein phosphatase non-receptor type 1; test: Inhibition of human recombinant PTP1B expressed in Escherichia coli using p-nitrophenyl phosphate as substrate by UV spectroscopy
[18] = organism: Homo sapiens; test: Selectivity ratio of Ki for TCPTP (unknown origin) to Ki for PTP1B catalytic domain (1 to 321 residues) (unknown origin)
[19] = target: T1, Tyrosine-protein phosphatase non-receptor type 1; test: Inhibition of PTP1B catalytic domain (1 to 321 residues) (unknown origin) expressed in Escherichia coli BL21 (DE3) cells using p-Nitrophenyl phosphate as substrate
[20] = target: T2, Tyrosine-protein phosphatase non-receptor type 2; test: Inhibition of recombinant TCPTP (unknown origin) at pH 7

IC50 [1]: 1.5 µM | Ratio IC50 [2]: 10.3 | IC50 [3]: 15.5 µM
SMILES: CO[C@H]1O[C@H](Cn2cc(NC(=O)c3cccc(C(=O)Nc4cn(C[C@H]5O[C@H](OC)[C@H](OCc6ccccc6)[C@H](OCc6ccccc6)[C@@H]5OCc5ccccc5)nn4)c3)nn2)[C@@H](OCc2ccccc2)[C@@H](OCc2ccccc2)[C@H]1OCc1ccccc1

Ratio IC50 [10]: 6.2 | IC50 [11]: 9.6 µM | IC50 [12]: 59.6 µM
SMILES: COC(=O)[C@H](Cc1ccc(O)cc1)n1cc(CO[C@H]2[C@@H](OCc3ccccc3)[C@@H](OC)O[C@H](COCc3ccccc3)[C@H]2OCc2cn([C@@H](Cc3ccc(O)cc3)C(=O)OC)nn2)nn1

Ratio IC50 [15]: 1.6 | IC50 [16]: 2.4 µM | IC50 [17]: 1.5 µM
SMILES: O=C(O)C(=O)c1ccc(OCc2ccc(COc3ccc(C(=O)C(=O)O)cc3)c(C(=O)Nc3ccc(Oc4ccccc4)cc3)c2)cc1

Ratio Ki [18]: 4.08 | Ki [8]: 0.02 µM | Ki [19]: 0.0049 µM
SMILES: NC(=O)[C@H](Cc1ccc(C(F)(F)P(=O)(O)O)cc1)NC(=O)[C@H](Cc1ccc(O)cc1)NC(=O)Cc1ccc(C(F)(F)P(=O)(O)O)cc1

IC50 [1]: 7.7 µM | Ratio IC50 [2]: 7.05 | IC50 [3]: 54.3 µM
SMILES: CO[C@H]1O[C@H](COCc2ccccc2)[C@@H](OCc2ccccc2)[C@H](OCc2cn(CCCOc3ccc(O)c(C(=O)O)c3)nn2)[C@H]1OCc1cn(CCCOc2ccc(O)c(C(=O)O)c2)nn1

Further lines, the molecule ahead of its results:

SMILES: CCCCCNC(=O)[C@H](Cc1ccc(C(=O)C(=O)Nc2ccccc2C(=O)O)c(/C=C/C(N)=O)c1)NS(C)(=O)=O
Ki [4]: 0.16 µM | Ki [5]: 0.17 µM | Ratio Ki [6]: 0.94

SMILES: COC(=O)c1c(O)cccc1OC/C=C/c1ccc(F)c(-c2cc(C(=O)O)no2)c1
IC50 [7]: 6.9 µM | IC50 [8]: 164 µM | Ratio IC50 [9]: 23.8

SMILES: CC(=O)N[C@H](Cc1ccc(N(C(=O)C(=O)O)c2ccccc2C(=O)O)c2ccccc12)C(=O)NCCCCCOc1cc2ccccc2cc1C(=O)O
IC50 [8]: 0.049 µM

SMILES: COC(=O)c1ccc(C(C/C=C/c2ccccc2)(Cc2ccc(C(F)(F)P(=O)(O)O)cc2)n2nnc3ccccc32)cc1 (stereo unspecified)
IC50 [13]: 0.087 µM

SMILES: COC(=O)c1c(O)cccc1OC/C=C/c1cccc(-c2onc(C(=O)O)c2CO)c1
IC50 [14]: 0.92 µM | IC50 [8]: 19.2 µM

SMILES: O=C(O)C(=O)Nc1sc2c(c1C(=O)O)CCN(CCc1ccccc1)C2
Ki [20]: 7.2 µM
